Our source for the EC50 values is patent US8680139B2 (Progenra, priority 2009, dated 2014).

Usually EC50 stands for the concentration giving half of the maximal effect.

This assay concerns the target T1, USP7 (Homo sapiens, UniProt Q93009).
T1 construct: full length human USP7 protein; made in house
In words: USP7, Ub-PLA2 assay. In kind it is biochemical. The note with it: Ub-PLA2 / NBD C6-HPC fluorescence, 30 minute preincubation; read-out: EC50 for inhibition of USP7. How it is done:
The purpose of this assay is to measure the inhibition of USP7 by various compounds of the invention synthesized according to the above-described methods. […] The vehicle control was 100% (v/v) DMSO. 1.6 μL aliquots of the diluted test compound and controls were dispensed into individual wells in a black walled 96 well plate. […] The data were normalized within a plate relative to the control wells using the equation % inhibition=(100−(((RFUcompound−RFUmean NEM) / (RFUmean DMSO−RFUmean NEM))×100)).

T1 sequence (Q93009 whole entry): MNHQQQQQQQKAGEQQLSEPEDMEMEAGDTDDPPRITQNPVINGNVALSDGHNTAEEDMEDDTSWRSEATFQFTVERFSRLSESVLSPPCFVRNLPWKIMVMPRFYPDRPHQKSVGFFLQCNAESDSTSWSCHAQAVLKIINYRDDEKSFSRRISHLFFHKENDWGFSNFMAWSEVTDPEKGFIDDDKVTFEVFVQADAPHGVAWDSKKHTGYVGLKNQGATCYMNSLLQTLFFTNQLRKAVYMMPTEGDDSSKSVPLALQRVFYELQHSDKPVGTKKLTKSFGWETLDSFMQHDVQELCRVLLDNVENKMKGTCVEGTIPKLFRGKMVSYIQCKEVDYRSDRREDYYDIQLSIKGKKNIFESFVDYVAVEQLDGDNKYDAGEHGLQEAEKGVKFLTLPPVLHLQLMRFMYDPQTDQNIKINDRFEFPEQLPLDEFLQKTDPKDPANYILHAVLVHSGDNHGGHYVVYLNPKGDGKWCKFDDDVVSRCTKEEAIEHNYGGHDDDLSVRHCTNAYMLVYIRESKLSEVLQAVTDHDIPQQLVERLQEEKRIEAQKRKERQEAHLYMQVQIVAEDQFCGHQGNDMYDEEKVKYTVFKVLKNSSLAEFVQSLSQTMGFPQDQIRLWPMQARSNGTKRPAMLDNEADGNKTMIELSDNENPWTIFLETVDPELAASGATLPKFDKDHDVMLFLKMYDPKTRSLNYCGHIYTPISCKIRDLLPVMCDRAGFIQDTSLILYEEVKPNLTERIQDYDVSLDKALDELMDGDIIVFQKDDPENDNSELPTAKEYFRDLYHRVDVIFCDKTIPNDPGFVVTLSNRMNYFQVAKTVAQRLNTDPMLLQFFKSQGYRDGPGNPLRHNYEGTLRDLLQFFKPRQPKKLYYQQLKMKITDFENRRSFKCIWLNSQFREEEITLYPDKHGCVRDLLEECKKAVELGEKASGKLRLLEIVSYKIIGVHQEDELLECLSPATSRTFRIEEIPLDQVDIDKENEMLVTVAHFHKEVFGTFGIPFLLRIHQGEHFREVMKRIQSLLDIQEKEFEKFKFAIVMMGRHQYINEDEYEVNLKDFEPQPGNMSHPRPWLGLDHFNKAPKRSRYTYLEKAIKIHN

With `O=C(NC1CCNC1)c1cc([N+](=O)[O-])c(Sc2c(Cl)cncc2Cl)s1` (centres unmarked) [Example 195, 5-((3,5-dichloropyridin-4-yl)thio)-4-nitro-N-(pyrrolidin-3-yl)thiophene-2-carboxamide], the EC50 was at most 1 µM. Consider `CN(C)CCNC(=O)c1cc([N+](=O)[O-])c(Sc2c(Cl)cncc2Cl)s1` [Example 48, 5-[(3,5-dichloro-4-pyridyl)sulfanyl]-N-(2-dimethylaminoethyl)-4-nitro-thiophene-2-carboxamide], for which the EC50 lay in the range of 1 to 10 µM. Turning to `CC(O)c1ccc(NC(=O)c2cc([N+](=O)[O-])c(Sc3c(Cl)cncc3Cl)s2)cc1` (centres unmarked) [Example 131, 5-((3,5-dichloropyridin-4-yl)thio)-N-(4-(1-hydroxyethyl)phenyl)-4-nitrothiophene-2-carboxamide], the EC50 is at most 1 µM.

On to `O=C(NCC(=O)N1CCCCC1)c1cc([N+](=O)[O-])c(Sc2c(Cl)cncc2Cl)s1` [Example 221, 5-((3,5-dichloropyridin-4-yl)thio)-4-nitro-N-(2-oxo-2-(piperidin-1-yl)ethyl)thiophene-2-carboxamide], for which the EC50 lay in the range of 1 to 10 µM.

In the case of `CC(=O)c1cc([N+](=O)[O-])c(Sc2ccc3c(C)cc(=O)oc3c2)s1` [Example 38, 7-[(5-acetyl-3-nitro-2-thienyl)sulfanyl]-4-methyl-chromen-2-one], the EC50 is above 10 µM. The result for `COc1cc(NC(=O)c2cc([N+](=O)[O-])c(Sc3c(Cl)cncc3Cl)s2)cc(OC)c1OC` [Example 169, 5-((3,5-dichloropyridin-4-yl)thio)-4-nitro-N-(3,4,5-trimethoxyphenyl)thiophene-2-carboxamide] reads at most 1 µM; that for `CC(N)c1cc([N+](=O)[O-])c(Sc2ccc(Cl)cc2Cl)s1` (centres unmarked) [Example 27, 1-[5-(2,4-dichlorophenyl)sulfanyl-4-nitro-2-thienyl]ethanamine], above 10 µM; that for `O=C(Nc1c(Cl)cccc1Cl)c1cc([N+](=O)[O-])c(Sc2c(Cl)cncc2Cl)s1` [Example 135, N-(2,6-dichlorophenyl)-5-((3,5-dichloropyridin-4-yl)thio)-4-nitrothiophene-2-carboxamide], at most 1 µM. As to `O=C(Nc1cc(-c2ccccc2)n[nH]1)c1cc([N+](=O)[O-])c(Sc2c(Cl)cncc2Cl)s1` [Example 71, 5-((3,5-dichloropyridin-4-yl)thio)-4-nitro-N-(3-phenyl-1H-pyrazol-5-yl)thiophene-2-carboxamide], the EC50 was in the range of 1 to 10 µM.

As to `COCCN1CC(NC(=O)c2cc([N+](=O)[O-])c(Sc3c(Cl)cncc3Cl)s2)CC1=O` (centres unmarked) [Example 93, 5-((3,5-dichloropyridin-4-yl)thio)-N-(1-(2-methoxyethyl)-5-oxopyrrolidin-3-yl)-4-nitrothiophene-2-carboxamide], the EC50 fell in the range of 1 to 10 µM.

In the case of `COc1ccccc1CCNC(=O)c1cc([N+](=O)[O-])c(Sc2c(Cl)cncc2Cl)s1` [Example 113, 5-((3,5-dichloropyridin-4-yl)thio)-N-(2-methoxyphenethyl)-4-nitrothiophene-2-carboxamide], the EC50 is at most 1 µM. In the case of `Nc1ccc(NC(=O)c2cc([N+](=O)[O-])c(Sc3c(Cl)cncc3Cl)s2)cc1` [Example 235, N-(4-aminophenyl)-5-((3,5-dichloropyridin-4-yl)thio)-4-nitrothiophene-2-carboxamide], the 50% effective concentration (EC50) is at most 1 µM. Regarding `CC(C)(C)OC(=O)N1CCC(NC(=O)c2cc([N+](=O)[O-])c(Sc3c(Cl)cncc3Cl)s2)CC1` [Example 85, tert-butyl 4-(5-((3,5-dichloropyridin-4-yl)thio)-4-nitrothiophene-2-carboxamido)piperidine-1-carboxylate], the EC50 fell in the range of 1 to 10 µM.

Consider `CC1(C)CCN(C(=O)c2cc([N+](=O)[O-])c(Sc3c(Cl)cncc3Cl)s2)CC1` [Example 80, (5-((3,5-dichloropyridin-4-yl)thio)-4-nitrothiophen-2-yl)(4,4-dimethylpiperidin-1-yl)methanone], for which the EC50 fell in the range of 1 to 10 µM. On to `CS(=O)(=O)c1ccc(CNC(=O)c2cc([N+](=O)[O-])c(Sc3c(Cl)cncc3Cl)s2)cc1` [Example 102, 5-((3,5-dichloropyridin-4-yl)thio)-N-(4-(methylsulfonyl)benzyl)-4-nitrothiophene-2-carboxamide], for which the EC50 was at most 1 µM. For `O=C(NCc1ccccc1)c1cc([N+](=O)[O-])c(Sc2nc3ccccc3s2)s1` [Example 252, 5-(benzo[d]thiazol-2-ylthio)-N-benzyl-4-nitrothiophene-2-carboxamide], the EC50 lay within 1 to 10 µM. Regarding `O=C(NCCCN1CCCC1=O)c1cc([N+](=O)[O-])c(Sc2ccc(Cl)cc2Cl)s1` [Example 82, 5-((2,4-dichlorophenyl)thio)-4-nitro-N-(3-(2-oxopyrrolidin-1-yl)propyl)thiophene-2-carboxamide], the EC50 is 1 to 10 µM. Consider `CC(C)(C)NC(=O)c1cc([N+](=O)[O-])c(Sc2c(Cl)cncc2Cl)s1` [Example 153, N-(tert-butyl)-5-((3,5-dichloropyridin-4-yl)thio)-4-nitrothiophene-2-carboxamide], for which the EC50 is at most 1 µM. For `O=C(Nc1ccc(Br)cc1)c1cc([N+](=O)[O-])c(Sc2c(Cl)cncc2Cl)s1` [Example 152, N-(4-bromophenyl)-5-((3,5-dichloropyridin-4-yl)thio)-4-nitrothiophene-2-carboxamide], the EC50 is at most 1 µM. Then `O=C(NCC(O)CN1CCCCC1)c1cc([N+](=O)[O-])c(Sc2c(Cl)cncc2Cl)s1` (centres unmarked) [Example 241, 5-((3,5-dichloropyridin-4-yl)thio)-N-(2-hydroxy-3-(piperidin-1-yl)propyl)-4-nitrothiophene-2-carboxamide], with 1 to 10 µM; and `O=C(NCCCN1CCC(F)CC1)c1cc([N+](=O)[O-])c(Sc2c(Cl)cncc2Cl)s1` [Example 228, 5-((3,5-dichloropyridin-4-yl)thio)-N-(3-(4-fluoropiperidin-1-yl)propyl)-4-nitrothiophene-2-carboxamide], with 1 to 10 µM. Then `O=C(NCc1ccco1)c1cc([N+](=O)[O-])c(Sc2c(Cl)cncc2Cl)s1` [Example 52, 5-((3,5-dichloropyridin-4-yl)thio)-N-(furan-2-ylmethyl)-4-nitrothiophene-2-carboxamide], with 1 to 10 µM; and `CC1(C)CCN(CCCNC(=O)c2cc([N+](=O)[O-])c(Sc3c(Cl)cncc3Cl)s2)CC1` [Example 229, 5-((3,5-dichloropyridin-4-yl)thio)-N-(3-(4,4-dimethylpiperidin-1-yl)propyl)-4-nitrothiophene-2-carboxamide], with at most 1 µM. For `CC(=O)N1CCC(NC(=O)c2cc([N+](=O)[O-])c(Sc3c(Cl)cncc3Cl)s2)C1` (centres unmarked) [Example 199, N-(1-acetylpyrrolidin-3-yl)-5-((3,5-dichloropyridin-4-yl)thio)-4-nitrothiophene-2-carboxamide], the 50% effective concentration (EC50) is 1 to 10 µM.

Consider `O=C(Nc1ccc2c(c1)OCO2)c1cc([N+](=O)[O-])c(Sc2c(Cl)cncc2Cl)s1` [Example 158, N-(benzo[d][1,3]dioxol-5-yl)-5-((3,5-dichloropyridin-4-yl)thio)-4-nitrothiophene-2-carboxamide], for which the EC50 is at most 1 µM. Consider `O=C(NCc1cccc(Cl)c1)c1cc([N+](=O)[O-])c(Sc2c(Cl)cncc2Cl)s1` [Example 57, N-(3-chlorobenzyl)-5-((3,5-dichloropyridin-4-yl)thio)-4-nitrothiophene-2-carboxamide], for which the EC50 lay in the range of 1 to 10 µM. The result for `CC(C)NC(=O)c1cc([N+](=O)[O-])c(Sc2c(Cl)cncc2Cl)s1` [Example 44, 5-[(3,5-dichloro-4-pyridyl)sulfanyl]-N-isopropyl-4-nitro-thiophene-2-carboxamide] reads 1 to 10 µM. As for `CSc1ccc(NC(=O)c2cc([N+](=O)[O-])c(Sc3c(Cl)cncc3Cl)s2)cc1` [Example 174, 5-((3,5-dichloropyridin-4-yl)thio)-N-(4-(methylthio)phenyl)-4-nitrothiophene-2-carboxamide], the EC50 was at most 1 µM. Regarding `COC(=O)c1cc([N+](=O)[O-])c(Sc2nc3cc(Cl)c(F)cc3[nH]2)s1` [Example 265, Methyl 5-((5-chloro-6-fluoro-1H-benzo[d]imidazol-2-yl)thio)-4-nitrothiophene-2-carboxylate], the EC50 was in the range of 1 to 10 µM.

As to `O=C(NCCc1ccccc1)c1cc([N+](=O)[O-])c(Sc2c(Cl)cncc2Cl)s1` [Example 96, 5-((3,5-dichloropyridin-4-yl)thio)-4-nitro-N-phenethylthiophene-2-carboxamide], the half-maximal effective concentration (EC50) was at most 1 µM. `O=C(NC1C2CC3CC(C2)CC1C3)c1cc([N+](=O)[O-])c(Sc2c(Cl)cncc2Cl)s1` (centres unmarked) [Example 75, N-((1r,3r,5r,7r)-adamantan-2-yl)-5-((3,5-dichloropyridin-4-yl)thio)-4-nitrothiophene-2-carboxamide]: the EC50 fell in the range of 1 to 10 µM.

As to `O=C(NCCCN1CCCCC1)c1cc([N+](=O)[O-])c(Sc2c(Cl)cncc2Cl)s1` [Example 100, 5-((3,5-dichloropyridin-4-yl)thio)-4-nitro-N-(3-(piperidin-1-yl)propyl)thiophene-2-carboxamide], the concentration for a half-maximal effect (EC50) is at most 1 µM. Regarding `O=C(NCCN1CCCCC1)c1cc([N+](=O)[O-])c(Sc2c(Cl)cncc2Cl)s1` [Example 161, 5-((3,5-dichloropyridin-4-yl)thio)-4-nitro-N-(2-(piperidin-1-yl)ethyl)thiophene-2-carboxamide], the EC50 was at most 1 µM.

`CN(C)C(=O)c1cc([N+](=O)[O-])c(Sc2c(Cl)cncc2Cl)s1` [Example 49, 5-[(3,5-dichloro-4-pyridyl)sulfanyl]-N,N-dimethyl-4-nitro-thiophene-2-carboxamide]: the EC50 lay in the range of 1 to 10 µM. Turning to `O=C(NCCc1ccccc1F)c1cc([N+](=O)[O-])c(Sc2c(Cl)cncc2Cl)s1` [Example 111, 5-((3,5-dichloropyridin-4-yl)thio)-N-(2-fluorophenethyl)-4-nitrothiophene-2-carboxamide], the EC50 was at most 1 µM.
